Laboratory results taken from the supplement of paper PMC6045584.
± gives the standard deviation of the averaged measurements.

How the values were obtained:
BEZ-235 = compound: Cn1c(=O)n(-c2ccc(C(C)(C)C#N)cc2)c2c3cc(-c4cnc5ccccc5c4)ccc3ncc21 [BEZ-235]; experiment: surviving fraction relative to DMSO-only wells; higher = less growth inhibition; settings: exposure time: 5 days
Method in brief: (§1)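 Lines were retained only if, across three screens, replicate Pearson r was >0.7 and median Z' was >0.3. Viability was measured as CellTiter-Glo luminescence and reported as surviving fraction relative to the median of DMSO-only wells. Readings followed 10 minutes at room temperature, after log-phase tumour cells seeded at 250–500 per well in 384-well plates had been exposed, from 24 hours after seeding, continuously for five days to inhibitors at 0.5, 1, 5, 10, 50, 100, 500 and 1000 nM.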

VORINOSTAT = compound: O=C(CCCCCCC(=O)Nc1ccccc1)NO [VORINOSTAT]; experiment: as above; settings: exposure time: 5 days
Method in brief: as §1

Test System	surviving fraction (BEZ-235; 0.5 nM)	surviving fraction (BEZ-235; 1 nM)	surviving fraction (BEZ-235; 5 nM)	surviving fraction (BEZ-235; 10 nM)	surviving fraction (BEZ-235; 50 nM)	surviving fraction (BEZ-235; 100 nM)	surviving fraction (BEZ-235; 500 nM)	surviving fraction (BEZ-235; 1000 nM)	surviving fraction (VORINOSTAT; 0.5 nM)	surviving fraction (VORINOSTAT; 1 nM)	surviving fraction (VORINOSTAT; 5 nM)	surviving fraction (VORINOSTAT; 10 nM)	surviving fraction (VORINOSTAT; 50 nM)	surviving fraction (VORINOSTAT; 100 nM)	surviving fraction (VORINOSTAT; 500 nM)	surviving fraction (VORINOSTAT; 1000 nM)
HS57T BREAST	1.08 ± 0.039	1.03 ± 0.033	0.916 ± 0.027	0.826 ± 0.016	0.335 ± 0.021	0.258 ± 0.0071	0.186 ± 0.009	0.181 ± 0.011	0.935 ± 0.066	0.992 ± 0.038	1.01 ± 0.073	1.071 ± 0.009	1.04 ± 0.052	0.995 ± 0.056	0.804 ± 0.049	0.475 ± 0.026
G292 BONE	1.02 ± 0.026	0.987 ± 0.027	0.974 ± 0.025	0.982 ± 0.036	0.526 ± 0.032	0.357 ± 0.0091	0.202 ± 0.0096	0.163 ± 0.0093	1.02 ± 0.027	0.995 ± 0.029	0.982 ± 0.046	1.04 ± 0.047	0.979 ± 0.04	0.947 ± 0.036	0.691 ± 0.032	0.511 ± 0.03
HMLE3 BREAST	1.03 ± 0.092	0.966 ± 0.069	0.961 ± 0.036	0.929 ± 0.047	0.582 ± 0.035	0.315 ± 0.011	0.111 ± 0.0049	0.0777 ± 0.0078	0.914 ± 0.067	0.95 ± 0.038	1.11 ± 0.03	1.01 ± 0.095	1.04 ± 0.042	1.09 ± 0.049	0.982 ± 0.066	0.702 ± 0.073
HMT3552 BREAST	1.09	1.05	1.01	1.02	0.681	0.466	0.186	0.191	0.95	1.12	1.03	1.01	1.09	1.14	0.656	0.329
HCC70 BREAST	1.1 ± 0.04	1.08 ± 0.075	1.02 ± 0.082	1.13 ± 0.1	0.836 ± 0.1	0.599 ± 0.068	0.347 ± 0.034	0.296 ± 0.025	0.965 ± 0.061	0.963 ± 0.042	1 ± 0.054	1.02 ± 0.11	1.06 ± 0.094	0.973 ± 0.073	0.766 ± 0.037	0.496 ± 0.049
HS578T BREAST	1.13 ± 0.15	0.972 ± 0.15	0.997 ± 0.18	0.817 ± 0.092	0.46 ± 0.028	0.384 ± 0.026	0.263 ± 0.027	0.257 ± 0.02	0.951 ± 0.12	0.888 ± 0.12	0.922 ± 0.2	0.989 ± 0.11	0.945 ± 0.2	0.821 ± 0.068	0.569 ± 0.08	0.347 ± 0.034
HCC38 BREAST	1.33 ± 0.21	1.21 ± 0.094	1.19 ± 0.037	1.2 ± 0.1	0.862 ± 0.013	0.666 ± 0.035	0.291 ± 0.041	0.278 ± 0.054	1.25 ± 0.035	1.25 ± 0.028	1.27 ± 0.15	1.24 ± 0.097	1.42 ± 0.26	1.23 ± 0.21	1.06 ± 0.066	0.633 ± 0.11
